Experimental data as given in ChEMBL document CHEMBL1135287, “Anisylazoformylarginine: a superior assay substrate for carboxypeptidase B type enzymes” (Bioorg Med Chem Lett, 2002).

Columns and labels:
[1] = species: Sus scrofa; experiment: Kinetic constant in the presence of porcine carboxypeptidase B
[2] = species: Sus scrofa; experiment: Specificity constant kcat/Km was obtained at pH of 7.9, 25 degree C by the porcine carboxypeptidase B

COc1ccc(/N=N/C(=O)N[C@@H](CCCN=C(N)N)C(=O)O)cc1
Km [1]: 44 µM
k cat [1]: 44 s⁻¹
k cat/Km [2]: 1e+06 M⁻¹ s⁻¹
